Key:
[1] = test system: primary fibroblast cells from non-FA subjects (C3, C4); test: Repair of lesions in non-FA primary fibroblasts; type: cell-based
Experimental: HeLa, Jurkat and FA or XP primary cells (10^6 per dish) were seeded into 10 cm culture dishes and incubated overnight in culture medium. The following day, samples were treated with 0.5 μM click-Melphalan (Example 1), 0.5 μM click-MonoMelphalan (Example 2) or DMSO vehicle for 1 h. After treatment, cells were PBS-washed and released into medium. At designated time points, samples were harvested and fixed in EtOH 70%. Fixed cells where incubated in a click reaction buffer (50 μM Alexa fluor 647 azide, 1 mM copper (II) sulfate, 100 mM sodium ascorbate, 100 mM Tris-HCl pH 8.0) for 30 min at room temperature and then washed extensively using 3×5% FBS in PBS rinses to remove unbound reporter. Samples were stained with 5 μg/mL propidium iodide in 3% FBS in PBS and then analyzed using an LSR Fortessa flow cytometer (BD Biosciences, San Jose, CA). Ten thousand events were collected for each sample and gated using forward-versus side-scatter to eliminate cell debris and doublets. The data were analyzed using FlowJo software version 7.6.5 (Tree Star, San Carlos, CA).
FA patient skin fibroblast cells were cryopreserved at Saint-Louis Hospital (Paris, France). Informed consents were obtained from the patients and/or their relatives and IRB approval from the INSERM was given under the number 12-078. […]

HeLa cells [2] = test: Clonogenic survival assay
HeLa cells [3] = test: Detection of G2 arrest by flow cytometry
[4] = test system: fibroblast cells from XP patients (XP1, XP2); test: Repair of lesions in XP patient fibroblasts
HeLa cells [5] = test: Reverse alkaline comet assay (ICL formation)
[6] = test system: cells from subject C3 (non-XP); test: Repair of lesions in control (non-XP) fibroblasts
[7] = test system: primary fibroblast cells from FA patients (FA1, FA2); test: Repair of lesions in FA patient primary fibroblasts
HeLa FANCD2 KO cells = test: Dual parameter plot assay (click / propidium iodide)
HeLa cells [8] = test: as above
HeLa cells [9] = test: Repair of lesions in HeLa cells, click reaction and flow cytometry
DNA [10] = test: Detection of click agents in cells by microscopy (Alexa Fluor 647 azide)
DNA [11] = conditions: photoactivated by UVA (Dunnick et al. 1987); cited from earlier work
FA pathway = conditions: Semlow et al. 2016; Li et al. 2020; cited from earlier work

Row | SMILES | cells still positive for melphalan [1] | number of colonies formed (clonogenic survival) (HeLa cells [2]) | toxicity compared to mono-melphalan (HeLa cells [2]) | overall biological response, melphalan vs click-melphalan (HeLa cells [3]) | cells still positive for melphalan [4] [%] | IR-induced tail moment after pre-treatment (HeLa cells [5]) | visual comet score in the absence of IR (HeLa cells [5]) | cells still positive for melphalan [6] [%] | cells still positive for melphalan [7] [%] | persistence of melphalan-induced lesions [7] | cell cycle block and repair until 48 h (HeLa FANCD2 KO cells) | cell cycle phase of positive cells at 12 h (HeLa cells [8]) | fluorescence at 24 h (HeLa cells [8]) | repair at 48 h (HeLa cells [8]) | effect of added non-clickable melphalan on repair of click-mono-melphalan monoadducts (HeLa cells [9]) | fluorescence in cells after click reaction (DNA [10]) | type of DNA lesions generated (DNA [11]) | repair of psoralen-induced ICLs by FA (FA pathway)
1 | N[C@@H](Cc1ccc(N(CCCl)CCCl)cc1)C(=O)O [melphalan, (S)-2-amino-3-(4-(bis(2-chloroethyl)amino)phenyl)propanoic acid, reference compound] | less than 25% | similarly reduces the number of colonies formed with no significative differences | higher toxicity of melphalan compared to mono-melphalan | equivalent biological response | ~75 | large decrease in the IR-induced tail moment | neither Melphalan, click-Melphalan (Example 1), mono-melphalan (Comparative Example 1) nor click-mono-melphalan (Example 2) generated a visual comet score beyond the vehicle-treated control | 25 | ~100 | persisted in the FA patient cells up to 48 h | remained blocked in late S-G2 phase until 48 h with unrepaired DNA lesions | most of the HeLa positive cells are blocked in late S-G2 | a decrease in fluorescence is observed at 24 h | full repair at 48 h | inhibited by the addition of non-clickable melphalan during the first 24 h of recovery | do not present significant levels of fluorescence | – | –
2 | O=c1ccc2cc3ccoc3cc2o1 [Psoralen] | – | – | – | – | – | – | – | – | – | – | – | – | – | – | – | – | almost exclusively ICLs | not preferentially repaired by FA

— US20260308116A1, “TERTIARY AMINE COMPOUNDS CONTAINING AN ALKYNE OR AN AZIDE MOIETY AND THEIR USE” (INSTITUT NATIONAL DE LA SANTÉ ET DE LA RECHERCHE MÉDICALE, priority 2023, published 2026)
